# Source: US20150246136A1, “NOVEL BINDER-DRUG CONJUGATES (ADCs) AND USE OF SAME” (priority 2011, published 2015)
# Experiment: Pharmacokinetics in the HT29 tumor model, non-transfected tumors
# Format: in vivo
# Conditions: after i.v. 16 mg/kg Example 60
# Method: C-2.3 Pharmacokinetics in the HT29 Tumor Model with Mesothelin-Transfected HT29 Cells and Non-Transfected Cells
# After i.v. administration of 16 mg/kg from Example 60, the plasma and tumor concentrations of Example 60 were measured along with potentially occurring metabolites such as those of Example 119, for example. […] In the animals with non-transfected tumors, the exposure in the plasma in Example 119 was identical to the exposure in the plasma of animals with transfected tumors. […] This is indicative of a definite targeting effect in the tumor in the presence of the antigen.
# Analysis for Quantitation of the Compound from Example 119 […]
# In workup of a tumor, it was mixed with a four-fold amount of methanol. […] After agitating again, the tumor sample was ready for measurement.
# Finally, the measurement of both matrix samples was performed on the HPLC coupled atmospheric pressure ionization/tandem mass spectrometer by means of turbo ion spray interface (TISP) on an API4000 instrument from the company SCIEX. The following m/z transitions were measured: […]
# For the calibration, plasma samples with concentrations of 0.5-2000 μg/L were mixed. The limit of quantitation (LOQ) was 2 μg/L. The linear range was from 2 to 1000 μg/L. […]
smiles,measurement,value
"CC[C@H](C)[C@@H]([C@@H](CC(=O)N1CCC[C@H]1[C@H](OC)[C@@H](C)C(=O)N[C@@]1(C(=O)N2CCCCO2)C[C@@H]1c1ccccc1)OC)N(C)C(=O)[C@@H](NC(=O)[C@H](C(C)C)N(C)CCCC(=O)NNC(=O)CCCCCN1C(=O)CC(SC[C@H](N)C(=O)O)C1=O)C(C)C (stereo partly drawn) [Example 119, N-(4-{2-[6-(3-{[(2R)-2-amino-2-carboxyethyl]sulfanyl}-2,5-dioxopyrrolidin-1-yl)hexanoyl]hydrazino}-4-oxobutyl)-N-methyl-L-valyl-N-[(3R,4S,5S)-3-methoxy-1-{(2S)-2-[(1R,2R)-1-methoxy-2-methyl-3-{[(1S,2R)-1-(1,2-oxazinan-2-ylcarbonyl)-2-phenylcyclopropyl]amino}-3-oxopropyl]pyrrolidin-1-yl}-5-methyl-1-oxoheptan-4-yl]-N-methyl-L-valinamide]",AUC in the tumor versus transfected animals,approx. eight times lower
same,exposure in the plasma versus animals with transfected tumors,identical
